Test results reported in patent US5808100A, “Chromene compounds and photochromic materials” (Tokuyama Corporation, priority 1995, dated 1998).

How the values were obtained:
[1] = Durability T1/2 by xenon fadometer FAC-25AX-HC; format: physicochemical; settings: in polymer
Method: (§1) 0.05 Parts of the chromene compound obtained in Example 1 was added to 70 parts of a tetraethylene glycol dimethacrylate, 15 parts of a triethylene glycol dimethacrylate, 10 parts of a glycidyl methacrylate and 5 parts of a 2-hydroethyl methacrylate, and was mixed to a sufficient degree. The mixture solution was poured into a mold constituted by a glass plate and a gasket made from an ethylene/vinyl acetate copolymer and then polymerized. The polymerization was conducted by using an air furnace while gradually raising the temperature up to 30° C. to 90° C. over a period of 18 hours, the temperature being maintained at 90° C. for two hours. After the polymerization, the polymer was taken out from the glass mold.
(§2) Color fading rate [t1/2 ]: Time required by the polymer irradiated for 120 seconds until the absorbancy decreases down to one-half of [ε(120)-ε(0)]. Durability [T1/2 ]: Time required until the absorbency at the maximum absorption wavelength decreases down to 1/2 of the initial absorbency as measured by using a xenon fadometer FAC-25AX-HC manufactured by Suga Shikenki Co.
(§3) The photochromic polymers were obtained in the same manner as described above but using the compounds obtained in Examples 2 to 33 as chromene compounds. For the purpose of comparison, properties of the compounds represented by the following formulas (A), (B), (D) and (E) were also shown in Table 3. [drawing 110]

[2] = Photochromic properties of polymer (2 mm thick) containing the chromene compound, xenon lamp irradiation 120 seconds; format: physicochemical; design: key to Color density ε(120)-ε(0): absorbance at λmax after 120 s irradiation minus before, ε(120)-ε(0); settings: for Color density ε(120)-ε(0): 120 seconds irradiation, 20° C.±1° C.; for Color density ε(120)-ε(0) / ε(0): absorbancy of the polymer not irradiated (initial color): at λmax; for Color fading rate t1/2: time until absorbancy decreases to one-half of [ε(120)-ε(0)]: after 120 seconds irradiation; for Maximum absorption wavelength λMax (developed color tone): polymer after developing color
Method: as §1
The obtained polymer (2 mm thick) was irradiated with light from a xenon lamp L-2480 (300 W) SHL-100 manufactured by Hamamatsu Photonics Co. through an Aero Mass filter (manufactured by Corning Co.) for 120 seconds under the conditions of 20° C.±1° C., beam intensities of 365 nm=2.4 mW/cm^2 and […]=24 μW/cm^2 on the polymer surface to develop color and to measure photochromic properties. The photochromic properties were expressed as described below.
Maximum absorption wavelength (λmax): λmax of the polymer after it has developed color was found by using a spectrophotometer (instantaneous multi-channel photodetector MCPD1000) manufactured by Otsuka Denshi Kogyo Co.
ε(120): Absorbancy of the polymer using light of a maximum absorption wavelength after it was irradiated under the above-mentioned conditions for 120 seconds.
ε(0): Absorbancy of the polymer that has not been irradiated using light of a wavelength same as the maximum absorption wavelength of light with which the polymer was irradiated.
ε(120)-ε(0): Color density
as §2, §3

| Durability T1/2: time until absorbancy at maximum absorption wavelength decreases to 1/2 of the initial [1] [h] | Color density ε(120)-ε(0) [2] | Color fading rate t1/2: time until absorbancy decreases to one-half of [ε(120)-ε(0)] [2] [min] | ε(0): absorbancy of the polymer not irradiated (initial color) [2] | Maximum absorption wavelength λMax (developed color tone) [2] [nm] | Compound |
| --- | --- | --- | --- | --- | --- |
| 480 | 1.06 | 1 | 0.07 | 484 | COc1ccc2ccc3c(c2c1)C=CC(c1ccco1)(c1coc2ccccc12)O3 (stereo not shown) [Compound 14] |
| 460 | 0.52 | 0.667 | 0.04 | 436 | C1=CC(c2ccccc2)(c2ccccc2)Oc2ccc3ccccc3c21 [A, reference compound] |
| 510 | 1.50 | 1.2 | 0.04 | 456 | Fc1c(C2(c3cccs3)C=Cc3c(ccc4ccccc34)O2)ccc2ccccc12 (stereo not shown) [Compound 1] |
| 490 | 0.51 | 0.7 | 0.04 | 466 | C1=CC(c2ccccc2)(c2cccs2)Oc2ccc3ccccc3c21 (stereo not shown) [D, reference compound] |
| 540 | 1.11 | 0.833 | 0.07 | 466 | C1=CC(c2ccoc2)(c2ccco2)Oc2ccc3ccccc3c21 (stereo not shown) [Compound 5] |
| 480 | 1.12 | 1.08 | 0.05 | 458 | N#Cc1cc(Cl)c(C2(c3ccoc3)C=Cc3c(ccc4ccccc34)O2)s1 (stereo not shown) [Compound 24] |
| 510 | 1.33 | 1.37 | 0.10 | 460 | C1=CC(c2ccsc2)(c2cc3ccccc3o2)Oc2cc(N3CCCCC3)c3ccccc3c21 (stereo not shown) [Compound 10] |
| 495 | 1.18 | 1.17 | 0.04 | 450 | Fc1c(C2(c3ccsc3)C=Cc3c(ccc4ccccc34)O2)ccc2ccccc12 (stereo not shown) [Compound 30] |
| 490 | 1.36 | 1.23 | 0.05 | 476 | COc1ccc2c3c(ccc2c1)OC(c1ccc2ccccc2c1)(c1cnco1)C=C3 (stereo not shown) [Compound 11] |
| 480 | 1.42 | 1.48 | 0.05 | 506 | CC(=O)Oc1ccc2c3c(ccc2c1)OC(c1ccc(C)s1)(c1cccc2ccccc12)C=C3 (stereo not shown) [Compound 20] |
| 480 | 1.49 | 1.38 | 0.08 | 496 | C1=CC(c2ccco2)(c2cccc3ccccc23)Oc2ccc3ccccc3c21 (stereo not shown) [Compound 3] |
| 490 | 1.02 | 1.03 | 0.07 | 480 | C1=CC(c2ncco2)(c2csc3ccccc23)Oc2ccc3cc(Cc4ccccc4)ccc3c21 (stereo not shown) [Compound 13] |
| 490 | 1.10 | 0.983 | 0.07 | 486 | C1=CC(c2ccc3ccccc3c2)(c2ccco2)Oc2ccc3ccccc3c21 (stereo not shown) [Compound 4] |
| 470 | 1.35 | 1.17 | 0.05 | 450 | CC(C)(C)Oc1ccc2ccc3c(c2c1)C=CC(c1cccs1)(c1ccc2ccccc2c1Cl)O3 (stereo not shown) [Compound 21] |
| 450 | 1.34 | 1.1 | 0.08 | 510 | CCOc1c(C2(c3ccco3)C=Cc3c(ccc4cc(OC)c(C(C)=O)cc34)O2)ccc2ccccc12 (stereo not shown) [Compound 12] |
| 520 | 1.02 | 0.75 | 0.07 | 464 | C1=CC(c2ccsc2)(c2ccco2)Oc2ccc3ccccc3c21 (stereo not shown) [Compound 6] |
| 485 | 1.09 | 0.7 | 0.06 | 466 | C1=CC(c2ccc3ccccc3c2)(c2nccs2)Oc2ccc3ccccc3c21 (stereo not shown) [Compound 16] |
| 490 | 1.44 | 1.33 | 0.06 | 480 | Fc1c(C2(c3ccco3)C=Cc3c(ccc4ccccc34)O2)ccc2ccccc12 (stereo not shown) [Compound 31] |
| 490 | 1.28 | 1.08 | 0.05 | 450 | Fc1occc1C1(c2ccc3ccccc3c2)C=Cc2c(ccc3ccccc23)O1 (stereo not shown) [Compound 32] |
| 510 | 1.05 | 0.833 | 0.06 | 460 | C1=CC(c2ccco2)(c2csc3ccccc23)Oc2ccc3ccccc3c21 (stereo not shown) [Compound 26] |
| 240 | 0.74 | 1.5 | 0.04 | 472 | COc1ccc2c3c(ccc2c1)OC(c1ccccc1)(c1ccccc1)C=C3 [B, reference compound] |
| 480 | 1.30 | 1.37 | 0.12 | 440 | COc1cc2c(c3ccccc13)C=CC(c1cc(Cl)c3ccccc3c1)(c1cc3ccccc3s1)O2 (stereo not shown) [Compound 29] |
| 485 | 0.86 | 1.25 | 0.26 | 514 | Cc1csc(C2(c3scc(C)c3C)C=Cc3c(ccc4ccccc34)O2)c1C [E, reference compound] |
